Experimental data published in patent US5866775A, “Glyphosate-tolerant 5-enolpyruvyl-3-phosphoshikimate synthases” (Monsanto Company, priority 1990, dated 1999).

What was measured:
[1] = target: T1, pMON8252 encoded petunia EPSPS variant, glycine (101) to alanine and alanine (192) to threonine (Petunia hybrida, UniProt P11043, A264T/G173A); test: EPSP synthase kinetic constants (appKm PEP, appKi glyphosate); assay type: biochemical
T1 construct: alanine 192 in the mature petunia EPSP synthase; made in house; host or cells: E. coli SR481 (aroA-)
Description: The balance of the #742 preculture (~750 μl) was used to inoculate 2 ml of 2XYT medium containing 50 μg/ml carbenicillin and was shaken overnight at 37° C. to reach saturation. Plasmid DNA was isolated from an aliquot of the saturated culture using an alkaline lysis procedure. The plasmid was designated pMON8252. An aliquot of the pMON8252 plasmid was used to transform the E. coli host SR481 (described above) and reselected on MOPS medium containing 10 mM glyphosate and 50 μg/ml carbenicillin. A single glyphosate resistant colony of pMON8252 was picked off the selection plate and used to inoculate 3 ml of 2XY1 bacterial medium containing 50 μg/ml carbenicillin. The culture was then aerated on a rotating wheel at 37° C. until saturated and then used to inoculate a larger 250 ml culture. The large culture was grown to saturation by continuously shaking it overnight at 37° C. in a water bath. The bacterial cells were lysed and the extracts were assayed for EPSPS activity.
Specifically, the bacterial cell paste was washed twice with 0.9% saline, suspended in buffer (100 mM Tris-HCl, 5 mM benzamidine HCl) and passed twice through a French Pressure Cell at 1000 psi. The cell extract was separated from the cells by centrifuging at 15,000×gravity for 10 minutes at 5° C. It was desalted using Sephadex G-50 (Pharmacia, Piscataway, N.J.). The desalted extract was assayed for EPSP synthase activity as follows.
Kinetic constants (appKm PEP and appKi glyphosate) were determined for EPSP synthase as described below. Substrate kinetic parameters were determined at pH 7.9 in 50 mM HEPES (N-[2-hydroxyethyl]piperazine-N'-[2-ethanesulfonic acid]) buffer in the presence of 2 mM S3P and varying amounts of ^14 C-PEP (10 μM-400 μM), for 2.0 minutes at 25° C. Reactions were quenched with 100 mM NaAcetate in ethanol, pH 4.5, centrifuged and analyzed for product EPSP formation by HPLC with flow radioactivity detection. HPLC conditions were 0.35M KPi, pH 6.5, on a Synchropak AX100 column at 1.0 ml/minute.

[2] = test system: petunia plants transformed with pMON546 (CaMV35S/wild-type petunia EPSP synthase); test: Plant response to glyphosate spraying, chimeric EPSPS plants; assay type: in vivo; conditions: 0.8 #/acre acid equivalent (0.897 kg/hectare), isopropylamine salt, spray
Source text: Transformed petunia plants were produced by regeneration from the above-described transformed leaf disks by the procedure described by Horsch, et al. (1985). The transformed plants obtained contained the pMON546 vector, described hereinabove, which contains the CaMV35S promoter fused to the wild-type petunia EPSP synthase gene.
Four individual representative transgenic seedlings were selected, grown and tested in the testing procedure described below, along with four individual non-transformed (wild-type) petunia seedlings.
The plants were grown in a growth medium in a growth chamber at 26° C. with 12 hours of light per day. The plants were fertilized weekly with a soluble fertilizer and watered as needed. The plants were sprayed at a uniform and reproducible delivery rate of herbicide by use of an automated track sprayer. The glyphosate solution used was measured as pounds of glyphosate acid equivalents per acre, mixed as the glyphosate isopropylamine salt, with an ionic surfactant.
Four individual wild-type (non-transformed) petunia plants were selected for use as control plants. Four individual transformed plants containing the pMON546 vector were selected by kanamycin resistance as described by Horsch, et al. (1985). […]

[3] = test system: transgenic canola plants containing pMON10074 (Arabidopsis EPSPS gly-ala(101), ala-thr(192)); test: Glyphosate spray of canola, pMON10074 plants; assay type: in vivo; conditions: 0.56 kg/ha spray; 15 transgenic plants
Source text: The resulting plasmid, pMON8324, was partially sequenced to confirm the mutagenesis. […] The pMON10074 plasmid contains the following DNA segments (FIG. 5, clockwise). First, the 0.93 kb fragment isolated from transposon Tn7 which encodes bacterial spectinomycin/streptomycin resistance (Spc/Str), and is a determinant for selection in E. coli and Agrobacterium tumefaciens (Fling et al. 1985). This is joined to the chimeric kanamycin resistance gene engineered for plant expression to allow selection of the transformed tissue. […]
A total of 15 transgenic canola plants containing the pMON10074 construct, and 2 non-transformed controls were sprayed with glyphosate at a commercial rate of 0.56 kg/ha. The effect of glyphosate on both the vegetative and reproductive performance of the sprayed plants was scored at 7, 14 and 28 days after spray. […]

T1 sequence (P11043 73-516 G173A/A264T): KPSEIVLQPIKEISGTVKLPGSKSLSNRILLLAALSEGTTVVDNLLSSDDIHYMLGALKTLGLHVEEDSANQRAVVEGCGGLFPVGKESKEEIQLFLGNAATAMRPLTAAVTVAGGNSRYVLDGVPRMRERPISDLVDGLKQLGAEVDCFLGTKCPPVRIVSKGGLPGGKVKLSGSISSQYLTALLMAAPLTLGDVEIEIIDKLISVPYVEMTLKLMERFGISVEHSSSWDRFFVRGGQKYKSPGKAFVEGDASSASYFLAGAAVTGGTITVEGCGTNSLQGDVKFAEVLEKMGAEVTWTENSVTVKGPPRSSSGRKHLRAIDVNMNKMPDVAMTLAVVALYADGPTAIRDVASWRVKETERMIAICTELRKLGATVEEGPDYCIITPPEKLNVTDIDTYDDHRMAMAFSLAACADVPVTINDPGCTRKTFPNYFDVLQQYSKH

In the case of O=C(O)CNCP(=O)(O)O [glyphosate, N-phosphonomethylglycine], the “Ki /Km ratio” value ([1]; Ki glyphosate / Km PEP) is reported as 12.6, the Ki for glyphosate ([1]; versus PEP, extract of SR481 cells with pMON8252) is reported as 683 µM and the “Visual Appearance” value [2] is reported as “growing well”. For the same compound, the “reproductive score (scale 0-10, 0 total kill, 10 normal unsprayed plant)” value [3] was 7 out of 15 had reproductive scores greater than 8 with 3 of them scoring 10 and the “vegetative score (scale 0-10, 0 total kill, 10 normal unsprayed plant)” value [3] was 6 out of 15 plants having vegetative scores greater than 8, with 1 scoring a 10.
